Source: US6001853A, “Hydroxylamine compositions for the prevention or retardation of cataracts” (priority 1998, dated 1999)
Read-outs that look alike come from different tables or passages of the source. Blank lines part the entries; values can stand above or below the compound they belong to.

Assays:
[1] = test system: experimental cataracts; conditions: cited from earlier work
[2] = test system: cataracts in x-ray irradiated rats; conditions: cited from earlier work
[3] = test system: lens proteins; conditions: in vitro; cited from earlier work
[4] = test system: rat lenses; experiment: Rubidium-86 accumulation by cultured rat lenses (H2O2 stress); format: cell-based, Sprague-Dawley rat; conditions: for prevention of decrement in Rb-86 accumulation associated with H2O2 exposure: 0.25 mM H2O2, agent added at beginning of assay; for effect on Rb-86 accumulation of control lenses: added to medium of control lenses at beginning of assay, no H2O2
Description: (§1) Such assays are accepted as an indication of the in vivo effect of a drug in retarding the development of cataracts.
(§2) The techniques described in references 10 and 11 were used in this assay. Rat lenses used in these studies were obtained from Sprague-Dawley male rats. The lenses were incubated in 24-well clusters in modified TC-199 medium (prepared as described in Zigler and Hess, Exp. Eye Res. 41:67, 1985) and placed in a 37° C. incubator with a 95% air/5% CO2 humidified atmosphere. The lenses were incubated in about 2.0 ml of culture medium, which was adjusted to about 300 milliosmoles. The assays were usually of 22 hours duration, and tracer levels of ^86 Rb or tritiated choline were added at 18 hours so that the tracer was present during the last four hours of the assay.
Two potential anti-cataract agents were tested in this experiment: E-64 (a protease inhibitor) and pantetheine (a putative phase separation inhibitor) were added to the culture medium at the beginning of the assay.
(§3) The experiment was performed essentially as described for Example 2, except that TEMPOL-H was added at 3 or 4 mM or was added at 3 mM together with MPG at either 0.5 or 1 mM.

[5] = test system: rat lenses; experiment: Tritiated choline accumulation by cultured rat lenses (H2O2 stress); format: cell-based, Sprague-Dawley rat; conditions: for reduction of the H2O2-induced decrement of tritiated choline concentration: 0.25 mM H2O2, MPG 1 mM, TEMPOL-H 5 mM
Description: as §1, §2
(§4) Rat lenses were cultured as described in reference 11 and Example 1. H2 O2 was added to experimental cultures to a concentration of 0.25 mM. Carnosine at 1 mM, MPG at 1 mM, or TEMPOL-H at 5 mM was added to some of the treated lenses at the beginning of the culture assay.
as §3

[6] = Systemic/ocular delivery of MPG by osmotic pump, detection in the eye; format: in vivo, Sprague Dawley albino rats; conditions: subcutaneous, intraperitoneal and ocular routes; 2 ml of 100 mM over 7 or 14 days
Description: (§5) A 2 ml volume of 100 mM TEMPOL-H was provided in an ALZET osmotic pump, available from Alza Corporation of Palo Alto, Calif. The pump was programmed to deliver the 2 ml dose continuously (down an osmotic gradient) over a period of either 7 or 14 days.
The reducing agent MPG was also delivered to the subjects by subcutaneous, intraperitoneal and ocular routes, as described in Example 7, through an implanted osmotic pump. A 2 ml volume of 100 mM MPG was provided in the pump and delivered over a period of 7 days or 14 days.

[7] = test system: cells; conditions: reported by Mitchell and colleagues; cited from earlier work
[8] = test system: lens; experiment: Lens penetration and redox state by EPR of lens homogenate; format: in vitro ADME, rat
Description: TEMPOL-H is the reduced form of the nitroxide TEMPOL, which is a stable free radical detectable by electron paramagnetic resonance (EPR) spectroscopy, as in reference 12. TEMPOL-H can be readily converted to TEMPOL by oxidation with ferricyanide, and then can be quantitated by EPR spectroscopy. This provides a ready means of determining whether TEMPOL-H is present in experimental lenses and whether it is in the oxidized or reduced state. […] TEMPOL-H can in turn be oxidized to the nitroxide by dehydrogenases and activated oxygen species, such as singlet oxygen.
as §4
Following lens incubation, lenses were rinsed, then homogenized in buffer and aliquots of the homogenate analyzed by EPR. […] Only following treatment of the lens extract with ferricyanide was the nitroxide detected.

[9] = Systemic delivery of TEMPOL-H by osmotic pump, plasma and eye concentrations; format: in vivo, Sprague Dawley albino rats; conditions: subcutaneous osmotic pump, 2 ml of 100 mM over 7 or 14 days
Description: as §5
In the rats who received subcutaneous delivery of the hydroxylamine, plasma TEMPOL-H concentrations of 0.25 μM were observed.

[10] = test system: rat lenses; format: cell-based; conditions: 1.0 mM H2O2 plus 4 mM TEMPOL-H, 24 hours
Description: Lenses were cultured as in the above examples.

SMILES: CC(=O)Oc1ccccc1C(=O)O [Aspirin]
delay of experimental cataracts [1]: shown to delay experimental cataracts

SMILES: O=C(O)COc1nn(Cc2ccccc2)c2ccccc12 [Bendazac]
delay of onset of cataracts [2]: delay the onset of cataracts in x-ray irradiated rats
protection of lens proteins [3]: found to protect lens proteins in vitro

SMILES: CC(C)CC(NC(=O)C1OC1C(=O)O)C(=O)NCCCCNC(=N)N (stereo not shown) [E-64]
prevention of decrement in Rb-86 accumulation associated with H2O2 exposure [4]: neither prevented the decrement in accumulation
effect on Rb-86 accumulation of control lenses [4]: small negative effect on Rb-86 accumulation

SMILES: OO [H2 O2, hydrogen peroxide]
Rb-86 accumulation (internal concentration relative to concentration in the medium) ([4]; H2O2 bolus 0.25 mM, normal control lenses more than 7-fold): 5 fold

detection of MPG in the eye [6]: detected in the eye
SMILES: CC(S)C(=O)NCC(=O)O (stereo not shown) [MPG, N-(2-mercaptopropionyl) glycine]
reduction of the H2O2-induced decrement of tritiated choline concentration [5]: significant reduction in the decrement of tritiated choline concentration

SMILES: CC1(C)CC(O)CC(C)(C)N1[O] [TEMPOL, 4-hydroxy-2,2,6,6-tetramethylpiperidin-1-yloxy]
protection of cells from oxidative damage [7]: protects cells from oxidative damage

SMILES: CC1(C)CC(O)CC(C)(C)N1O [TEMPOL-H]
penetration of the lens from the culture medium ([8]; EPR after lens incubation, TEMPOL-H 5 mM): does penetrate the lens from the culture medium
redox state within the lens ([8]; nitroxide detected only following ferricyanide treatment of lens extract): the highly reducing environment within the lens keeps the compound in the reduced state
reduction of the H2O2-induced decrement of tritiated choline concentration [5]: significant reduction in the decrement of tritiated choline concentration
effect on 3H-choline accumulation in lenses exposed to H2O2, dose response / combination ([5]; TEMPOL-H 3 or 4 mM, or 3 mM with MPG 0.5 or 1 mM (FIG. 5)): dose response effect
effect on Rb-86 accumulation in lenses exposed to H2O2, dose response / combination ([4]; TEMPOL-H 3 or 4 mM, or 3 mM with MPG 0.5 or 1 mM (FIG. 6)): dose response effect
protection of cells from oxidative damage [7]: affords no such protection
concentration ([9]; read-out: concentration in the eye): 20 nM
concentration ([9]; read-out: plasma TEMPOL-H concentration): 250 nM
inhibition of opacification of cultured lenses [10]: clearly and consistently was found to inhibit opacification of the cultured lenses

SMILES: CC(=O)Nc1ccc(O)cc1 [acetaminophen]
delay of experimental cataracts [1]: shown to delay experimental cataracts

SMILES: CC(C)Cc1ccc(C(C)C(=O)O)cc1 (stereo not shown) [ibuprofen]
delay of experimental cataracts [1]: shown to delay experimental cataracts

SMILES: CC(C)(CO)[C@@H](O)C(=O)NCCC(=O)NCCS [pantetheine]
prevention of decrement in Rb-86 accumulation associated with H2O2 exposure [4]: neither prevented the decrement in accumulation
effect on Rb-86 accumulation of control lenses [4]: small negative effect on Rb-86 accumulation
